Source: patent US8853420B2, “Compounds” (Boehringer Ingelheim International GmbH, priority 2008, dated 2014)

Target: T1, Xenopus laevis Aurora B/INCENP complex (Xenopus laevis, UniProt Q6DE08)
T1 construct: equipped at the N-terminal position with a GST tag (amino acids 60-361); GST (N, cleaved yes); made in house; host or cells: E. coli BL21 (DE3)
Assay: Aurora-B kinase assay (radioactive enzyme inhibition assay)
Assay type: biochemical
Settings: test substance at 1 μM; percentage of the positive control (maximum value without test substance)
Description: Example Aurora-B Kinase Assay
A radioactive enzyme inhibition assay was developed using E. coli-expressed recombinant Xenopus laevis Aurora B wild-type protein equipped at the N-terminal position with a GST tag (amino acids 60-361) in a complex with Xenopus laevis INCENP (amino acids 790-847), which is obtained from bacteria and purified. In equivalent manner a Xenopus laevis Aurora B mutant (G96V) in a complex with Xenopus laevis INCENP^790-847 may also be used.
Expression and Purification
The coding sequence for Aurora-B^60-361 from Xenopus laevis is cloned into a modified version of pGEX-6T (Amersham Biotech) via BamHI and SalI cutting sites. The vector contains two cloning cassettes which are separated by a ribosomal binding site, allowing bi-cistronic expression. In this configuration Xenopus laevis Aurora B is expressed by the first cassette, and the Xenopus laevis INCENP^790-847 is expressed by the second cassette. The resulting vector is pAUB-IN^847.
First of all the E. coli strain BL21 (DE3) is co-transformed with pUBS520 helper plasmid and pAUB-IN^847, after which protein expression is induced using 0.3 mM IPTG at an OD600 of 0.45-0.7. The expression is then continued for approx. 12-16 h at 23-25° C. with agitation.
The bacteria are then removed by centrifuging and the pellet is lysed in lysis buffer (50 mM Tris/Cl pH 7.6, 300 mM NaCl, 1 mM DTT, 1 mM EDTA, 5% glycerol, Roche Complete Protease Inhibitor tablets) using ultrasound, using 20-30 mL lysis buffer per liter of E. coli culture. The lysed material is freed from debris by centrifugation (12000 rpm, 45-60 min, JA20 rotor). The supernatant is incubated with 300 μL of equilibrated GST Sepharose Fast Flow (Amersham Biosciences) per liter of E. coli culture for 4-5 h at 4° C. Then the column material is washed with 30 volumes of lysis buffer and then equilibrated with 30 volumes of cleavage buffer (50 mM Tris/Cl pH 7.6, 150 mM NaCl, 1 mM DTT, 1 mM EDTA). To cleave the GST tag from Aurora B, 10 units of Prescission Protease (Amersham Biosciences) are used per milligram of substrate and the mixture is incubated for 16 h at 4° C. The supernatant which contains the cleavage product is loaded onto a 6 mL Resource Q column (Amersham Biosciences) equilibrated with ion exchange buffer (50 mM Tris/Cl pH 7.6, 150 mM NaCl, 1 mM DTT, 1 mM EDTA). The Aurora B/INCENP complex is caught as it flows through, then concentrated and loaded onto a Superdex 200 size exclusion chromatography (SEC) column equilibrated with SEC buffer (10 mM Tris/Cl pH 7.6, 150 mM NaCl, 1 mM DTT, 1 mM EDTA). Fractions which contain the AuroraB/INCENP complex are collected and concentrated using Vivaspin concentrators (molecular weight exclusion 3000-5000 Da) to a final concentration of 12 mg/mL. Aliquots (e.g. 240 ng/μL) for kinase assays are transferred from this stock solution into freezing buffer (50 mM Tris/Cl pH 8.0, 150 mM NaCl, 0.1 mM EDTA, 0.03% Brij-35, 10% glycerol, 1 mM DTT) and stored at −80° C.
Test substances are placed in a polypropylene dish (96 wells, Greiner #655 201), in order to cover a concentration frame of 10 μM-0.0001 μM. The final concentration of DMSO in the assay is 5%. 30 μL of protein mix (50 mM tris/Cl pH 7.5, 25 mM MgCl2, 25 mM NaCl, 167 μM ATP, 10 ng Xenopus laevis Aurora B/INCENP complex in freezing buffer) are pipetted into the 10 μl of test substance provided in 25% DMSO and this is incubated for 15 min at RT. Then 10 μL of peptide mix (100 mM tris/Cl pH 7.5, 50 mM MgCl2, 50 mM NaCl, 5 μM NaF, 5 μM DTT, 1 μCi gamma-P33-ATP [Amersham], 50 μM substrate peptide [biotin-[…] or multimers thereof, or biotin-[…] or multimers thereof, or biotin-[…]]) are added. The reaction is incubated for 75 min (ambient temperature) and stopped by the addition of 180 μL of 6.4% trichloroacetic acid and incubated for 20 min on ice. […]

T1 sequence (Q6DE08 60-361): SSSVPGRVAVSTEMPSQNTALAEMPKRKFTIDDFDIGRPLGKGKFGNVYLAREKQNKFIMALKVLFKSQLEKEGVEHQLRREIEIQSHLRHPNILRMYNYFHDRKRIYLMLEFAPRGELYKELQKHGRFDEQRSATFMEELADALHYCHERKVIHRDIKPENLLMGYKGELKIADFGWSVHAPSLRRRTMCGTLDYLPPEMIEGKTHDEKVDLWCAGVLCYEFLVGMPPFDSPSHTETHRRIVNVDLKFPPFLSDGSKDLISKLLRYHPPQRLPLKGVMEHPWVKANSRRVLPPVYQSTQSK
T1 sequence (O13024 790-847 partner limits assumed): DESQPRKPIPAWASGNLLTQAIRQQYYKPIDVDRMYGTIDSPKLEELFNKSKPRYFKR

remaining activity at 1 µM	SMILES
15.2%	CCNc1cnc(-c2ccc3c(c2)NC(=O)/C3=C(\Nc2ccc(CN(C)C)cc2)c2ccccc2)cn1 [Example 1]
12.6%	CN(C)Cc1ccc(N/C(=C2\C(=O)Nc3cc(-c4cnc(NCC5CC5)cn4)ccc32)c2ccccc2)cc1 [Example 2]
7.08%	CCNc1ccc(-c2ccc3c(c2)NC(=O)/C3=C(\Nc2ccc(CN(C)C)cc2)c2ccccc2)cn1 [Example 5]
11.4%	CN(C)Cc1ccc(N/C(=C2\C(=O)Nc3cc(-c4ccc(N(C)C)nc4)ccc32)c2ccccc2)cc1 [Example 6]
15.6%	CNc1ccc(-c2ccc3c(c2)NC(=O)/C3=C(\Nc2ccc(CN(C)C)cc2)c2ccccc2)cn1 [Example 8]
10.6%	CN(C)Cc1ccc(N/C(=C2\C(=O)Nc3cc(-c4cnc(N5CCCC5)nc4)ccc32)c2ccccc2)cc1 [Example 10]
40%	CN(C)Cc1ccc(N/C(=C2\C(=O)Nc3cc(-c4ccc(S(C)(=O)=O)cc4)ccc32)c2ccccc2)cc1 [Example 12]
20.7%	CN(C)Cc1ccc(N/C(=C2\C(=O)Nc3cc(-c4ccc(N5CCOCC5)nc4)ccc32)c2ccccc2)cc1 [Example 14]
22%	CN(C)Cc1ccc(N/C(=C2\C(=O)Nc3cc(-c4ccc(OCC5CC5)nc4)ccc32)c2ccccc2)cc1 [Example 15]
21.1%	Cc1ccc(-c2ccc3c(c2)NC(=O)/C3=C(\Nc2ccc(CN(C)C)cc2)c2ccccc2)cn1 [Example 17]
107%	Cc1cnccc1-c1ccc2c(c1)NC(=O)/C2=C(\Nc1ccc(CN(C)C)cc1)c1ccccc1 [Example 20]
70.6%	CN(C)Cc1ccc(N/C(=C2\C(=O)Nc3cc(-c4ccccc4NS(C)(=O)=O)ccc32)c2ccccc2)cc1 [Example 23]
30.9%	CN(C)Cc1ccc(N/C(=C2\C(=O)Nc3cc(-c4cccc(C#N)c4)ccc32)c2ccccc2)cc1 [Example 39]
34.7%	CN(C)Cc1ccc(N/C(=C2\C(=O)Nc3cc(-c4cnc5ccccc5c4)ccc32)c2ccccc2)cc1 [Example 40]
13.5%	CC(=O)c1cncc(-c2ccc3c(c2)NC(=O)/C3=C(\Nc2ccc(CN(C)C)cc2)c2ccccc2)c1 [Example 41]
139%	CN(C)Cc1ccc(N/C(=C2\C(=O)Nc3cc(-c4cnc(C(=O)O)nc4)ccc32)c2ccccc2)cc1 [Example 42]
102%	CN(C)Cc1ccc(N/C(=C2\C(=O)Nc3cc(-c4ccc(C(N)=O)cc4)ccc32)c2ccccc2)cc1 [Example 43]
27.9%	CN(C)Cc1ccc(N/C(=C2\C(=O)Nc3cc(-c4cnc(N(C)C)nc4)ccc32)c2ccccc2)cc1 [Example 44]
1.76%	CN(C)Cc1ccc(N/C(=C2\C(=O)Nc3cc(-c4cnc(NC5CCC5)nc4)ccc32)c2ccccc2)cc1 [Example 45]
2.13%	CC(C)Nc1ncc(-c2ccc3c(c2)NC(=O)/C3=C(\Nc2ccc(CN(C)C)cc2)c2ccccc2)cn1 [Example 46]
1.59%	CN(C)Cc1ccc(N/C(=C2\C(=O)Nc3cc(-c4cnc(NCC(F)F)nc4)ccc32)c2ccccc2)cc1 [Example 47]
3.44%	CN(C)Cc1ccc(N/C(=C2\C(=O)Nc3cc(-c4cnc(NC5CC5)nc4)ccc32)c2ccccc2)cc1 [Example 48]
2.79%	CCCNc1ncc(-c2ccc3c(c2)NC(=O)/C3=C(\Nc2ccc(CN(C)C)cc2)c2ccccc2)cn1 [Example 50]
3.84%	CN(C)Cc1ccc(N/C(=C2\C(=O)Nc3cc(-c4cnc(NCC5CC5)nc4)ccc32)c2ccccc2)cc1 [Example 51]

remaining activity at 1 µM	SMILES
2.78%	CCNc1ncc(-c2ccc3c(c2)NC(=O)/C3=C(\Nc2ccc(CN(C)C)cc2)c2ccccc2)cn1 [Example 52]
157%	CN(C)Cc1ccc(N/C(=C2\C(=O)Nc3cc(-c4ccc(C(=O)O)nc4)ccc32)c2ccccc2)cc1 [Example 54]
5.91%	CN(C)Cc1ccc(N/C(=C2\C(=O)Nc3cc(-c4ccc(NCC5CC5)nc4)ccc32)c2ccccc2)cc1 [Example 55]
5.45%	CN(C)Cc1ccc(N/C(=C2\C(=O)Nc3cc(-c4ccc(NC5CCC5)nc4)ccc32)c2ccccc2)cc1 [Example 56]
5.74%	CCCNc1ccc(-c2ccc3c(c2)NC(=O)/C3=C(\Nc2ccc(CN(C)C)cc2)c2ccccc2)cn1 [Example 57]
8.01%	CC(C)Nc1ccc(-c2ccc3c(c2)NC(=O)/C3=C(\Nc2ccc(CN(C)C)cc2)c2ccccc2)cn1 [Example 58]
9.19%	CN(C)Cc1ccc(N/C(=C2\C(=O)Nc3cc(-c4ccc(NC5CC5)nc4)ccc32)c2ccccc2)cc1 [Example 59]
26.3%	CN(C)Cc1ccc(N/C(=C2\C(=O)Nc3cc(-c4ccc5c(c4)CC(=O)N5)ccc32)c2ccccc2)cc1 [Example 60]
14.1%	CN(C)Cc1ccc(N/C(=C2\C(=O)Nc3cc(-c4cn[nH]c4)ccc32)c2ccccc2)cc1 [Example 61]
1.96%	CC(=O)Nc1ccc(-c2ccc3c(c2)NC(=O)/C3=C(\Nc2ccc(CN(C)C)cc2)c2ccccc2)cn1 [Example 62]
11%	COc1cncc(-c2ccc3c(c2)NC(=O)/C3=C(\Nc2ccc(CN(C)C)cc2)c2ccccc2)c1 [Example 63]
13.4%	CN(C)Cc1ccc(N/C(=C2\C(=O)Nc3cc(-c4cccc(-n5cccn5)c4)ccc32)c2ccccc2)cc1 [Example 64]
27.6%	CN(C)Cc1ccc(N/C(=C2\C(=O)Nc3cc(-c4cccc(S(=O)(=O)N(C)C)c4)ccc32)c2ccccc2)cc1 [Example 65]
18.3%	CN(C)Cc1ccc(N/C(=C2\C(=O)Nc3cc(-c4ccc(N)nc4)ccc32)c2ccccc2)cc1 [Example 66]
5.48%	CN(C)Cc1ccc(N/C(=C2\C(=O)Nc3cc(-c4cccc(S(N)(=O)=O)c4)ccc32)c2ccccc2)cc1 [Example 67]
18.1%	CN(C)Cc1ccc(N/C(=C2\C(=O)Nc3cc(-c4cccc(C(N)=O)c4)ccc32)c2ccccc2)cc1 [Example 68]
17.2%	CC(=O)Nc1cccc(-c2ccc3c(c2)NC(=O)/C3=C(\Nc2ccc(CN(C)C)cc2)c2ccccc2)c1 [Example 69]
17.3%	COc1ccc(-c2ccc3c(c2)NC(=O)/C3=C(\Nc2ccc(CN(C)C)cc2)c2ccccc2)cn1 [Example 70]
24.5%	CN(C)Cc1ccc(N/C(=C2\C(=O)Nc3cc(-c4cccnc4)ccc32)c2ccccc2)cc1 [Example 71]
3.37%	CC(=O)Nc1ccc(-c2ccc3c(c2)NC(=O)/C3=C(\Nc2ccc(CN(C)C)cc2)c2ccccc2)cc1 [Example 72]
5.59%	CC(C)Nc1ncc(-c2cc3c(cc2F)/C(=C(/Nc2ccc(CN(C)C)cc2)c2ccccc2)C(=O)N3)cn1 [Example 73]
1.74%	CC(C)Nc1ncc(-c2ccc3c(c2)NC(=O)/C3=C(\Nc2ccc(N(C)C(=O)CN(C)C)cc2)c2ccccc2)cn1 [Example 75]
96.2%	CC(C)Nc1ncc(-c2ccc3c(c2)NC(=O)/C3=C(\NC2CCOCC2)c2ccccc2)cn1 [Example 77]
